# Laboratory results: ChEMBL document CHEMBL6092206, “Discovery and Characterization of BAY-184: A New Potent and Selective Acylsulfonamide-Benzofuran In Vivo-Active KAT6AB Inhibitor” (J Med Chem, 2024)
# The source made the active and inactive calls. No cut-off for these calls is given here.
# Legend:
# [1] = Metabolic stability in dog liver microsome assessed as clearance measured for 2 to 60 mins by LC-MS/MS analysis; assay type: ADME, Canis lupus familiaris; settings: microsomes, time 2-60 min
# [2] = Metabolic stability in mouse liver microsome assessed as maximum bioavailability of the drug measured for 2 to 60 mins by LC-MS/MS analysis; assay type: ADME; settings: liver microsomes, time 2-60 min, read-out: Fmax
# [3] = target: T1, Histone acetyltransferase KAT8 (Homo sapiens, UniProt Q9H7Z6); assay: Inhibition of full length N-terminal GST-tagged human recombinant KAT8 (174 to 449 residues) using H4-derived peptide as substrate incubated for 60 mins in presence of AcCoA by TR-FRET assay; set-up: species or system Sf9
# T1 sequence (Q9H7Z6 whole entry): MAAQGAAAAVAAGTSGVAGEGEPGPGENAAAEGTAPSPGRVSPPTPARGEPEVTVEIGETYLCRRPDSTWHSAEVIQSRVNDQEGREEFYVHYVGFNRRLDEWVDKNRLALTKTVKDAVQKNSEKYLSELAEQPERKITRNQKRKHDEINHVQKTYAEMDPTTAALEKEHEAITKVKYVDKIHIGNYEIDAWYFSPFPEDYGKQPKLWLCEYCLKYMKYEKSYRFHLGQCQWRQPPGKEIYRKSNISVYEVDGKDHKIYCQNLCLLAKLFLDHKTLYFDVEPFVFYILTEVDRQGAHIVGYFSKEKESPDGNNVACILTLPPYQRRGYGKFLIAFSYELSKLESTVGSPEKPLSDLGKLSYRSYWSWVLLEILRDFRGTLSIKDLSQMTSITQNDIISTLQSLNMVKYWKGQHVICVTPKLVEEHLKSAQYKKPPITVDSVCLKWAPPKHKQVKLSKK
# [4] = tested on: MDA-MB-436; assay: Antiproliferative activity against human MDA-MB-436 cells assessed as inhibition of cell growth incubated for 6 days by alamar blue staining based assay relative to control; assay type: functional; settings: time 6 day
# [5] = Stability of compound in PBS buffer at pH 7 measured for 24 hrs by HPLC analysis; assay type: physicochemical; settings: pH 7, 24 h
# [6] = AUC in mouse at 0.5 mg/kg, iv; assay type: ADME, organism-based; settings: in vivo
# [7] = target: T2, Histone acetyltransferase KAT6A (Homo sapiens, UniProt Q92794); assay: Inhibition of KAT6A in human ZR-75-1 cells assessed as reduction in H3K23ac level at 1 uM incubated at 10 to 2880 mins by Western blot analysis; assay type: cell-based; settings: time 10-2880 min
# [8] = target: T2, Histone acetyltransferase KAT6A; assay: Inhibition of KAT6A in human ZR-75-1 cells assessed as reduction in H3K23ac level at 1 uM measured after 144 hrs by Western blot analysis; assay type: cell-based
# [9] = Antiproliferative activity against human KPL-1 cells assessed as inhibition of cell growth incubated for 6 days by alamar blue staining based assay relative to control; assay type: functional; settings: time 6 day
# [10] = Mutagenicity in Salmonella typhimurium TA1537 by Ames test; assay type: toxicity; settings: salmonella enterica subsp. enterica serovar typhimurium
# [11] = Clearance in male Wistar rat at 0.5 mg/kg, iv or 1 mg/kg, po measured upto 24 hrs by LC-MS/S analysis; assay type: ADME, organism-based; settings: in vivo
# [12] = tested on: CAMA-1; assay: Antiproliferative activity against human CAMA-1 cells assessed as inhibition of cell growth incubated for 6 days by alamar blue staining based assay relative to control; assay type: functional; settings: time 6 day
# [13] = Metabolic stability in human liver microsome assessed as clearance measured for 2 to 60 mins by LC-MS/MS analysis; assay type: ADME; settings: microsomes, time 2-60 min
# [14] = Metabolic stability in mouse hepatocyte assessed as clearance measured for 2 to 90 mins by LC-MS/MS analysis; assay type: ADME, cell-based; settings: hepatocytes, time 2-90 min
# [15] = Metabolic stability in rat hepatocyte assessed as clearance measured for 2 to 90 mins by LC-MS/MS analysis; assay type: ADME, cell-based; settings: hepatocytes, time 2-90 min
# [16] = Metabolic stability in rat liver microsome assessed as clearance measured for 2 to 60 mins by LC-MS/MS analysis; assay type: ADME; settings: microsomes, time 2-60 min
# [17] = Half life in mouse at 0.5 mg/kg, iv; assay type: ADME, organism-based; settings: in vivo
# [18] = tested on: HaCaT; assay: Cytotoxicity against human HaCaT cells incubated for 72 hrs; assay type: toxicity, cell-based
# [19] = Plasma protein binding in mouse assessed as unbound fraction equilibrium dialysis based LC-MS/MS analysis; assay type: ADME, cell-free
# [20] = Metabolic stability in human hepatocyte assessed as maximum bioavailability of the drug measured for 2 to 90 mins by LC-MS/MS analysis; assay type: ADME; settings: hepatocytes, time 2-90 min, read-out: Fmax
# [21] = tested on: MFM-223; assay: Antiproliferative activity against human MFM-223 cells assessed as inhibition of cell growth incubated for 6 days by alamar blue staining based assay relative to control; assay type: functional; settings: time 6 day
# [22] = Toxicity in female estradiol-primed NMRI mouse assessed as tolerability at 50 to 10 mg/kg, po administered twice daily measured at 2 to 3 days; assay type: organism-based; settings: in vivo, dose lower 50 mg/kg, time lower 2 day, dose upper 10 mg/kg, time upper 3 day
# [23] = AUC in male Wistar rat at 1 mg/kg, po measured upto 24 hrs by LC-MS/S analysis; assay type: ADME, organism-based; settings: in vivo
# [24] = Stability in rat plasma assessed as parent compound remaining after 4 hrs; assay type: ADME, cell-free
# [25] = Mutagenicity in Salmonella typhimurium TA98 in presence of S9 fraction by Ames test; assay type: toxicity, subcellular; settings: salmonella enterica subsp. enterica serovar typhimurium
# [26] = Tmax in male Wistar rat at 1 mg/kg, po measured upto 24 hrs by LC-MS/S analysis; assay type: ADME, organism-based; settings: in vivo
# [27] = Stability of compound in borate buffer at pH 10 measured for 24 hrs by HPLC analysis; assay type: physicochemical; settings: pH 10, 24 h
# [28] = tested on: HCC1806; assay: Antiproliferative activity against human HCC1806 cells assessed as inhibition of cell growth incubated for 6 days by alamar blue staining based assay relative to control; assay type: functional; settings: time 6 day
# [29] = Volume of distribution at steady state in male Wistar rat at 0.5 mg/kg, iv or 1 mg/kg, po measured upto 24 hrs by LC-MS/S analysis; assay type: ADME, organism-based; settings: in vivo
# [30] = target: Histone acetyltransferase KAT5 (Homo sapiens, UniProt Q92993); assay: Inhibition of full length N-terminal GST-tagged human recombinant KAT5 expressed in Sf9 insect cells using H4-derived peptide as substrate incubated for 30 mins in presence of AcCoA by TR-FRET assay
# [31] = AUC in male Wistar rat at 0.5 mg/kg, iv measured upto 24 hrs by LC-MS/S analysis; assay type: ADME, organism-based; settings: in vivo
# [32] = Apparent permeability across apical to basolateral side in human Caco-2 cells at 2 uM pH 7.2 measured for 2 hrs by LC-MS/MS analysis; assay type: ADME, cell-based; settings: caco-2, pH 7.2, 2 h, 2 µM
# [33] = target: Histone acetyltransferase KAT7 (Homo sapiens, UniProt O95251); assay: Inhibition of full length N-terminal GST-tagged human recombinant KAT7 expressed in Sf9 insect cells using H4-derived peptide as substrate incubated for 30 mins in presence of AcCoA by TR-FRET assay
# [34] = tested on: MDA-MB-231; assay: Antiproliferative activity against human MDA-MB-231 cells assessed as inhibition of cell growth incubated for 6 days by alamar blue staining based assay relative to control; assay type: functional; settings: time 6 day
# [35] = Half life in male Wistar rat at 0.5 mg/kg, iv measured upto 24 hrs by LC-MS/S analysis; assay type: ADME, organism-based; settings: in vivo
# [36] = tested on: LCLC-97TM1; assay: Antiproliferative activity against human LCLC-97TM1 cells assessed as inhibition of cell proliferation incubated for 6 days by alamar blue staining based assay; assay type: functional; settings: time 6.0 day
# T2 sequence (Q92794 whole entry, looked up): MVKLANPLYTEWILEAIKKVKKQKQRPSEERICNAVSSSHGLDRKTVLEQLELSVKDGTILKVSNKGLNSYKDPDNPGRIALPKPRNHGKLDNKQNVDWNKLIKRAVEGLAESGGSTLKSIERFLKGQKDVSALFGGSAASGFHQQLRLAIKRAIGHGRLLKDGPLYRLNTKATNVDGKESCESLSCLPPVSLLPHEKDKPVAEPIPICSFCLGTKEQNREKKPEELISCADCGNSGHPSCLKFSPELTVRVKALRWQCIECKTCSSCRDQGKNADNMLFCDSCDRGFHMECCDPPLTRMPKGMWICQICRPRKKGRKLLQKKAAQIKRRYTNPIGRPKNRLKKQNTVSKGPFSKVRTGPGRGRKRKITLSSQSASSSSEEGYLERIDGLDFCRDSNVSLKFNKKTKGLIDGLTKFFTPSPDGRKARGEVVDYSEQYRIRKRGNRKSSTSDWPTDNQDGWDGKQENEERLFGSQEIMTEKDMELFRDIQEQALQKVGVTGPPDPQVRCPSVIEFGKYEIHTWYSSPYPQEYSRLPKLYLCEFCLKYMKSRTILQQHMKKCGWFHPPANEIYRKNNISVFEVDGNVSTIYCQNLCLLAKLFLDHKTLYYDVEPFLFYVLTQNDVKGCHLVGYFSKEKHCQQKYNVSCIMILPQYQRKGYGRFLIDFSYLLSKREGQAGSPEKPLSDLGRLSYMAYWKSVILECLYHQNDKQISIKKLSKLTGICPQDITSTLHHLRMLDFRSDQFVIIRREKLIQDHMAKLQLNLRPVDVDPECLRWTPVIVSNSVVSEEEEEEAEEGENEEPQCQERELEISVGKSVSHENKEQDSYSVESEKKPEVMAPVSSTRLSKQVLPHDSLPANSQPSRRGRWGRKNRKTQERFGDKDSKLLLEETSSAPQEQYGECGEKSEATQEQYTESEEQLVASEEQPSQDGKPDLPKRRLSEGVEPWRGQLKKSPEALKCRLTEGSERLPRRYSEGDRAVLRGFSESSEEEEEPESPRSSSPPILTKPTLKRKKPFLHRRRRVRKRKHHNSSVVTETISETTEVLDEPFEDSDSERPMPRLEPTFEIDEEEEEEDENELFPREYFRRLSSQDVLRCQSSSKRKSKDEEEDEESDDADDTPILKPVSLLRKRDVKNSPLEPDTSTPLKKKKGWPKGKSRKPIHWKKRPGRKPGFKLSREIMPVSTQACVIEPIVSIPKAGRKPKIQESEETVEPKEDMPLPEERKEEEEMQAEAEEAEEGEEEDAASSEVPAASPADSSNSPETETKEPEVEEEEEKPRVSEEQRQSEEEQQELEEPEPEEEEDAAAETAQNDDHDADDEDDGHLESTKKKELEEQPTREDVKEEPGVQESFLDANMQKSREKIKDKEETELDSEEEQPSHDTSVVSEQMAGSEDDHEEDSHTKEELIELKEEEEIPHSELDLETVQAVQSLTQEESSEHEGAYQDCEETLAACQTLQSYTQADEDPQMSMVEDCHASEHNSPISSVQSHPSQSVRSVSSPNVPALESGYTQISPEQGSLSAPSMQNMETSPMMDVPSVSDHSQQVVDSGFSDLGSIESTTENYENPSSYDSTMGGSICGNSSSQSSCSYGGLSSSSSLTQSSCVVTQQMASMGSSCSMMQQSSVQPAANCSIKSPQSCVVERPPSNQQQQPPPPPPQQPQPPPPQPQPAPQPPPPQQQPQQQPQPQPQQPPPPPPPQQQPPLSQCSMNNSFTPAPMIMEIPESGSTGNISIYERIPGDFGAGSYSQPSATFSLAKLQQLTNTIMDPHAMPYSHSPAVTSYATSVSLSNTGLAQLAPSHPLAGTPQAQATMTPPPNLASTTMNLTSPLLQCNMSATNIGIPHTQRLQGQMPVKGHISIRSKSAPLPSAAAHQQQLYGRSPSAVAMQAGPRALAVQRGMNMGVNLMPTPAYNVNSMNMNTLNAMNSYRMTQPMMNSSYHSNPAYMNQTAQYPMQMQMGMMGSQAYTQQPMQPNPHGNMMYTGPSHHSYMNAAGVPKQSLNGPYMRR
# Histone acetyltransferase KAT7, sequence (O95251 whole entry): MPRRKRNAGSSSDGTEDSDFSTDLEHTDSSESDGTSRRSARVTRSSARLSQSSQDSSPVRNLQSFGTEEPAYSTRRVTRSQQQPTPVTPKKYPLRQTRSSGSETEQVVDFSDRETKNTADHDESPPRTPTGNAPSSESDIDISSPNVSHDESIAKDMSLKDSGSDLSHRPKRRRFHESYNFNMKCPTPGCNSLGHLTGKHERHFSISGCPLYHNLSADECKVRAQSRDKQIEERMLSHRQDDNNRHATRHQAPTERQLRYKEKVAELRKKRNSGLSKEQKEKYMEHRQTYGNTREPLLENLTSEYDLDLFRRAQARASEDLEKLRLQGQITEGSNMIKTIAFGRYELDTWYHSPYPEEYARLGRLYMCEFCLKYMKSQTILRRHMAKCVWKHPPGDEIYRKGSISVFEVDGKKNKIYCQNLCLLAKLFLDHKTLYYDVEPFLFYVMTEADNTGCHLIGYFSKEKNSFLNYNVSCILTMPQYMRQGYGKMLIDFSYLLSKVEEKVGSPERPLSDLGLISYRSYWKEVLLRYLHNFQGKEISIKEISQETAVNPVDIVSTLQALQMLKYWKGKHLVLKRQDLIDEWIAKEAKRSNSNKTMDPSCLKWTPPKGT
# Histone acetyltransferase KAT5, sequence (Q92993 whole entry): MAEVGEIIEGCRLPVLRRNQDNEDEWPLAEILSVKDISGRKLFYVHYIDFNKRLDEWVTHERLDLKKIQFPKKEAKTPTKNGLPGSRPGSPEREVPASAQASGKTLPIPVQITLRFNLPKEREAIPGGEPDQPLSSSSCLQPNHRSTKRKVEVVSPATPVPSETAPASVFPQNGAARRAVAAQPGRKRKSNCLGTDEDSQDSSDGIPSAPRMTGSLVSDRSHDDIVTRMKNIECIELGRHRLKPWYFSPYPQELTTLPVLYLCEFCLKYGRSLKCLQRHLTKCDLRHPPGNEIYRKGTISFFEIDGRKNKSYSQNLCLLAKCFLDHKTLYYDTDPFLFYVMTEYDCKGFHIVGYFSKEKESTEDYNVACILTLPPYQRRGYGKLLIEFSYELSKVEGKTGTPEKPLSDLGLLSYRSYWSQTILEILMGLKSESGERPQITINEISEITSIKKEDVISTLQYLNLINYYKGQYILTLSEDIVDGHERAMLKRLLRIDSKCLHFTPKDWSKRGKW
compound,measurement,setting,value
CN(C)c1ccc2cc(C(=O)NS(=O)(=O)c3ccccc3-c3ccccc3)oc2c1,CLH,[1],6.83 mL/min/kg
same,Fh,[2],29%
same,IC50,[3],> 10 µM
same,inhibition (INH),[4],0%
same,Stability,[5],Stable
same,AUC,[6],2.5 kg·h/L
same,inhibition,[7],Active
same,inhibition,[8],inactive
same,inhibition (INH),[9],30%
same,Activity,[10],Non-toxic
same,clearance,[11],5.67 mL/min/kg
same,inhibition (INH),[12],68%
same,CLH,[13],12.8 mL/min/kg
same,CLH,[14],60 mL/min/kg
same,CLH,[15],41.7 mL/min/kg
same,CLH,[16],50 mL/min/kg
same,half-life,[17],1.3 h
same,Activity,[18],Non-toxic
same,Fu,[19],0.31%
same,Fh,[20],25%
same,inhibition (INH),[21],61%
same,Activity,[22],Non-toxic
same,AUC,[23],3.3 kg·h/L
same,Stability,[24],Stable
same,Activity,[25],Non-toxic
same,Tmax,[26],0.5 h
same,Stability,[27],Stable
same,inhibition (INH),[28],0%
same,Vdss,[29],0.13 L/kg
same,IC50,[30],14.3 µM
same,AUC,[31],5.5 kg·h/L
same,Papp,[32],14.6 ×10⁻⁶ cm/s
same,IC50,[33],1.07 µM
same,inhibition (INH),[34],0%
same,t1/2,[35],0.94 h
same,Activity,[36],Active
